Where two headings read alike, the source gives them in different places.
Columns and labels:
[1] = tested on: K562 cells; assay: Doxorubicin intracellular accumulation assay (flow cytometry) in K562; format: cell-based; set-up: key: MFI with inhibitor / MFI of Dox alone; settings: 5 μM Dox
Protocol: (§1) The intracellular accumulation of the fluorescent probes, Dox and Rho123, was determined by monitoring its fluorescence intensity using flow cytometry (96-well plate format), as previously reported. The inhibition on the outward transport of these P-gp substrates results in an increased […] fluorescence intensity (MFI). […] Those compounds showing inhibition on P-gp at the maximum tested concentration were further evaluated at serial dilutions to determinate their MECs. […] The plates were then incubated in a 5% CO2 incubator for 1 h at 37 °C. Afterwards, 5 μM Dox was added to each well. The other fluorescent specific substrate of P-gp, Rho123, however, was added at 500 ng/mL to additionally measure the ability of the most promising compounds to block its efflux. Subsequently, cells from both assays were washed twice with cold PBS, and 15,000 events from each sample were analyzed to determine the cell-associated fluorescence. Dead cells were eliminated by means of forward- and side-scatter parameters. […] The blocking of the P-gp transport function was evaluated by the parameter FIR, calculated as the ratio of the MFI of Dox or Rho123 with the addition of the likely inhibitor to the MFI of Dox or Rho123 alone.

[2] = target: P-gp (Homo sapiens, UniProt P08183); settings: 1 h
Protocol: as §1

Sequence of P-gp (P08183 whole entry): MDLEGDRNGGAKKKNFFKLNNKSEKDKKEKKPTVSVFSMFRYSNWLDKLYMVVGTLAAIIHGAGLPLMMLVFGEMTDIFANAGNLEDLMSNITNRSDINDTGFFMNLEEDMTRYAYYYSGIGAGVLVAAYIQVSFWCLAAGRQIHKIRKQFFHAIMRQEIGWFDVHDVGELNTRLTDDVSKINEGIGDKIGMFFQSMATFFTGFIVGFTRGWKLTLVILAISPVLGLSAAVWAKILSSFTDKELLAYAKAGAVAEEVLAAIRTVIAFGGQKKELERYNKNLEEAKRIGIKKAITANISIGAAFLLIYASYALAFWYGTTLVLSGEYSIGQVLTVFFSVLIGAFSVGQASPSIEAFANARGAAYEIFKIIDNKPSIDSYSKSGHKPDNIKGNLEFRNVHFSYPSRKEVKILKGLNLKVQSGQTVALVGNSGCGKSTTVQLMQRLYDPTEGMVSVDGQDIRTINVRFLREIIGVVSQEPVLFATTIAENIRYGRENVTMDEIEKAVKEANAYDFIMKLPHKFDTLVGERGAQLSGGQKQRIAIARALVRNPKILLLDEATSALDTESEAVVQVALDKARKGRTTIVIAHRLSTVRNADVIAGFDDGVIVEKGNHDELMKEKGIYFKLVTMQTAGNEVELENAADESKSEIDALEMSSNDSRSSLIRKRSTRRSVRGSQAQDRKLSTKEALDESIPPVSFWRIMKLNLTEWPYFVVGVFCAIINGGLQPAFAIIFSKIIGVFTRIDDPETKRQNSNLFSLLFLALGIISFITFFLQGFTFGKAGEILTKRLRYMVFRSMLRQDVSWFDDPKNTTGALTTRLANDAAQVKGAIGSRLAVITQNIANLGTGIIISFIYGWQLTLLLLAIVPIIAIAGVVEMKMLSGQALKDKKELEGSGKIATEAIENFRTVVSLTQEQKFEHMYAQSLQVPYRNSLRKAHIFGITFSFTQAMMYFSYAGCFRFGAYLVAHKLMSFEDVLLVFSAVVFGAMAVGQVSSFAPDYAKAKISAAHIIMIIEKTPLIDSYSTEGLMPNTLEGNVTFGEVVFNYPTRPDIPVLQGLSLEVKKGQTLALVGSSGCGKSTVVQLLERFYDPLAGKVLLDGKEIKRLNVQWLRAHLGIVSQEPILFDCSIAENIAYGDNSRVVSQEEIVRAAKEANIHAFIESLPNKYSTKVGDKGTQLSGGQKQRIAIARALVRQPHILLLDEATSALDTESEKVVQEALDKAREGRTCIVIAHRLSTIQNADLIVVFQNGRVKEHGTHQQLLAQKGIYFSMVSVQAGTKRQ

SMILES	minimum effective concentration (MEC), Dox accumulation [2] [µM]	FIR Lucena 1 ([2]; 5 µM)	FIR Lucena 1 ([2]; 10 µM)	FIR Lucena 1 ([2]; 20 µM)	FIR Lucena 1 ([2]; 1.25 µM)	FIR Lucena 1 ([2]; 2.5 µM)	FIR Lucena 1 ([2]; 0.31 µM)	FIR Lucena 1 ([2]; 0.62 µM)	FIR K562 ([1]; compound 20 µM)	FIR K562 ([1]; compound 5 µM)	FIR K562 ([1]; compound 10 µM)
O=c1[nH]c2ccccc2cc1CNc1ccc(Nc2nccc(-c3ccc(Cl)cc3)n2)cc1 [Compound 4a]	20	–	1.03 ± 0.01	1.21 ± 0.04	–	–	–	–	0.89 ± 0.03	–	–
COc1ccc2[nH]c(=O)c(CNc3ccc(Nc4nccc(-c5ccc(Cl)cc5)n4)cc3)cc2c1 [Compound 4b]	2.5	1.20 ± 0.06	1.23 ± 0.08	1.29 ± 0.08	1.10 ± 0.13	1.20 ± 0.06	–	–	0.90 ± 0.03	–	–
O=c1[nH]c2ccccc2cc1CNc1ccc(Nc2nccc(-c3ccc4ccccc4c3)n2)cc1 [Compound 5a]	2.50	1.06 ± 0.01	1.10 ± 0.02	1.24 ± 0.07	0.95 ± 0.05	1.05 ± 0.01	–	–	0.86 ± 0.02	–	–
COc1ccc2[nH]c(=O)c(CN3CCN(c4nccc(-c5ccc(Cl)cc5)n4)CC3)cc2c1 [Compound 6b]	2.5	1.32 ± 0.09	1.44 ± 0.13	1.55 ± 0.07	1.01 ± 0.03	1.15 ± 0.05	–	–	0.94 ± 0.10	–	–
O=c1[nH]c2ccccc2cc1CN1CCN(c2nccc(-c3ccc4ccccc4c3)n2)CC1 [Compound 7a]	1.25	1.38 ± 0.11	1.52 ± 0.17	1.33 ± 0.11	1.10 ± 0.03	1.28 ± 0.12	–	0.95 ± 0.02	1.02 ± 0.07	–	–
COc1ccc(CCN(C)CCCC(C#N)(c2ccc(OC)c(OC)c2)C(C)C)cc1OC (centres unmarked) [verapamil, reference compound]	–	–	–	–	–	–	–	–	1.08 ± 0.05	–	–

Now from value to compound, other results behind:

minimum effective concentration (MEC), Dox accumulation [2] [µM]	FIR Lucena 1 ([2]; 5 µM)	FIR Lucena 1 ([2]; 10 µM)	FIR Lucena 1 ([2]; 20 µM)	FIR Lucena 1 ([2]; 1.25 µM)	FIR Lucena 1 ([2]; 2.5 µM)	FIR Lucena 1 ([2]; 0.31 µM)	FIR Lucena 1 ([2]; 0.62 µM)	SMILES	FIR K562 ([1]; compound 20 µM)	FIR K562 ([1]; compound 5 µM)	FIR K562 ([1]; compound 10 µM)
10	1.06 ± 0.05	1.24 ± 0.02	1.70 ± 0.22	–	–	–	–	CC(=O)c1ccc(Nc2nccc(-c3ccc4ccccc4c3)n2)cc1 [Compound 3]	0.98 ± 0.07	–	–
0.62	1.32 ± 0.09	1.28 ± 0.07	1.39 ± 0.07	1.24 ± 0.08	1.31 ± 0.11	1.03 ± 0.01	1.11 ± 0.03	COc1cc2cc(CNc3ccc(Nc4nccc(-c5ccc(Cl)cc5)n4)cc3)c(=O)[nH]c2cc1OC [Compound 4c]	0.93 ± 0.02	–	–
0.62	1.31 ± 0.08	1.25 ± 0.07	1.36 ± 0.08	1.21 ± 0.07	1.29 ± 0.08	1.07 ± 0.03	1.16 ± 0.07	COc1ccc2[nH]c(=O)c(CNc3ccc(Nc4nccc(-c5ccc6ccccc6c5)n4)cc3)cc2c1 [Compound 5b]	0.96 ± 0.02	–	–
–	1.18 ± 0.03	1.38 ± 0.08	1.65 ± 0.12	1.09 ± 0.06	1.18 ± 0.04	–	–	Clc1ccc(-c2ccnc(N3CCNCC3)n2)cc1 [Compound 6]	1.20 ± 0.02	1.09 ± 0.04	1.19 ± 0.02
5	1.15 ± 0.05	1.30 ± 0.05	1.40 ± 0.05	–	1.06 ± 0.04	–	–	O=c1[nH]c2ccccc2cc1CN1CCN(c2nccc(-c3ccc(Cl)cc3)n2)CC1 [Compound 6a]	0.92 ± 0.04	–	–

Source: publication PMC8376931, “Structure activity relationships and the binding mode of quinolinone-pyrimidine hybrids as reversal agents of multidrug resistance mediated by P-gp” (Scientific Reports, 2021)
